From patent US20230091225A1, “Bifunctional chimeric heterocyclic compounds for targeted degradation of androgen receptors and use thereof” (HINOVA PHARMACEUTICALS INC., priority 2019, published 2023) come the findings set out here.

In this assay the target is T1, androgen receptor (AR) (Homo sapiens, UniProt P10275).
T1 sequence (P10275 1-920): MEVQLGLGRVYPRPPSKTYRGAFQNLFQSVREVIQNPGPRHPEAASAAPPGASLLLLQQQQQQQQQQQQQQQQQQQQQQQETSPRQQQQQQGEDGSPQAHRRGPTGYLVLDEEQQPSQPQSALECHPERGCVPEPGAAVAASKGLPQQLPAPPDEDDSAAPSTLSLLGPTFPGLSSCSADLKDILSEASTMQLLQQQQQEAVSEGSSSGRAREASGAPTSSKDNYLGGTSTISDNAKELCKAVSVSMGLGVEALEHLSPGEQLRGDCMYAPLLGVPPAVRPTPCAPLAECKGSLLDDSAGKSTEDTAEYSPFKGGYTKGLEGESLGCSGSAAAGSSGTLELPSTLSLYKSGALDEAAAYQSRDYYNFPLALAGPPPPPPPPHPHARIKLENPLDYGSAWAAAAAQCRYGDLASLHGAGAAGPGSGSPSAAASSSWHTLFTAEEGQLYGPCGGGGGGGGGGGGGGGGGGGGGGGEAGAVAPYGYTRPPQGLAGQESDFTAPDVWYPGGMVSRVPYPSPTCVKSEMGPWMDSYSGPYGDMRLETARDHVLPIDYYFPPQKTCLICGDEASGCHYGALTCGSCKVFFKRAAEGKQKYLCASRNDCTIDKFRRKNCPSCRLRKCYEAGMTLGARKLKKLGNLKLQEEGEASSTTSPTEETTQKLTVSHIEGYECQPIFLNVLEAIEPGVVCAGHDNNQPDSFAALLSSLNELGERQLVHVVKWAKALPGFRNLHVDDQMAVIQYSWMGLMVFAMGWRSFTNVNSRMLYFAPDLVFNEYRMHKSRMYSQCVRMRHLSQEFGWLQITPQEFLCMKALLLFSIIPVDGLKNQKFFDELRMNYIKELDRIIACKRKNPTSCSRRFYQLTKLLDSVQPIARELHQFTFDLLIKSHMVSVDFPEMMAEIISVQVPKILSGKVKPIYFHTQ
Nature of the assay: Degradation of androgen receptor (AR) protein in VCaP cells by Western blot. The class given is cell-based. The settings on record: percentage of degraded AR at 100 nM, VCaP cells, 16 h. In a few lines: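 AR and β-actin levels were read by Western blot with ECL detection, loading 30 μg lysate protein per well. Before lysis, VCaP cells seeded at 5×10^5/well and grown overnight were exposed to compound for 16 h, two wells per concentration, keeping DMSO at 0.1%.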
Turning to `N#Cc1ccc(O[C@H]2CC[C@H](NC(=O)c3cnc(N4CCC(CN5CC6CN(c7ccc8c(c7)C(=O)N(C7CCC(=O)NC7=O)C8=O)CC6C5)CC4)nc3)CC2)cc1Cl` (some centres unmarked) [Compound 256, N-((1r,4r)-4-(3-chloro-4-cyanophenoxy)cyclohexyl)-2-(4-((5-(2-(2,6-dioxopiperidin-3-yl)-1,3-dioxoisoindolin-5-yl)Hexahydropyrrolo[3,4-c]pyrrol-2(11H)-yl)methyl)piperidin-1-yl)pyrimidine-5-carboxamide], the inhibition at 0.1 µM was 25 to 49%.
Regarding `N#Cc1ccc(O[C@H]2CC[C@H](NC(=O)c3cnc(N4CCC(CN5CC6CN(c7cc8c(cc7F)C(=O)N(C7CCC(=O)NC7=O)C8=O)CC6C5)CC4)nc3)CC2)cc1Cl` (some centres unmarked) [Compound 257, N-((1r,4r)-4-(3-chloro-4-cyanophenoxy)cyclohexyl)-2-(4-((5-(2-(2,6-dioxopiperidin-3-yl)-6-fluoro-1,3-dioxoisoindolin-5-yl)Hexahydropyrrolo[3,4-c]pyrrol-2(1H)-yl)methyl)piperidin-1-yl)pyrimidine-5-carboxamide], the inhibition at 0.1 µM lay in the range of 25 to 49%.
In turn, `N#Cc1ccc(O[C@H]2CC[C@H](NC(=O)c3ccc(N4CC5CN(CC6CCN(c7cc8c(cc7F)C(=O)N(C7CCC(=O)NC7=O)C8=O)CC6)CC5C4)nn3)CC2)cc1Cl` (some centres unmarked) [Compound 259, N-((1r,4r)-4-(3-chloro-4-cyanophenoxy)cyclohexyl)-6-(5-((1-(2-(2,6-dioxopiperidin-3-yl)-6-fluoro-1,3-dioxoisoindolin-5-yl)piperidine-4-yl)methyl)hexahydropyrrolo[3,4-c]pyrrol-2(11H)-yl)pyridazine-3-carboxamide] yielded an inhibition at 0.1 µM greater than 80%.
For `N#Cc1ccc(O[C@H]2CC[C@H](NC(=O)c3ccc(N4CC5CN(CC6CCN(c7ccc8c(c7)C(=O)N(C7CCC(=O)NC7=O)C8=O)CC6)CC5C4)nn3)CC2)cc1Cl` (some centres unmarked) [Compound 260, N-((1r,4r)-4-(3-chloro-4-cyanophenoxy)cyclohexyl)-6-(5-((1-(2-(2,6-dioxopiperidin-3-yl)-1,3-dioxoisoindolin-5-yl)piperidine-4-yl)methyl)hexahydropyrrolo[3,4-c]pyrrol-2(1Ji)-yl)pyridazine-3-carboxamide], the inhibition at 0.1 µM was greater than 80%.
As to `N#Cc1ccc(O[C@H]2CC[C@H](NC(=O)c3cnc(N4CCC5(CC4)CN(C4CCN(c6cc7c(cc6F)C(=O)N(C6CCC(=O)NC6=O)C7=O)CC4)C5)cn3)CC2)cc1Cl` (some centres unmarked) [Compound 289], the inhibition at 0.1 µM was greater than 80%.
Regarding `N#Cc1ccc(O[C@H]2CC[C@H](NC(=O)c3ccc(N4CCN(C(=O)O[C@H]5C[C@@H]6CN(c7cc8c(cc7F)C(=O)N(C7CCC(=O)NC7=O)C8=O)C[C@@H]6C5)CC4)nn3)CC2)cc1Cl` (some centres unmarked) [Compound 290], the inhibition at 0.1 µM fell in the range of 50 to 79%.
Compound `CC1(C)[C@H](NC(=O)c2ccc(N3CCC(NC4CCN(c5cc6c(cc5F)C(=O)N(C5CCC(=O)NC5=O)C6=O)CC4)CC3)nn2)C(C)(C)[C@H]1Oc1ccc(C#N)c(Cl)c1` (some centres unmarked) [Compound 291, N-((1r,3r)-3-(3-chloro-4-cyanophenoxy)-2,2,4,4-tetramethylcyclobutyl)-6-(4-((1-(2-(2,6-dioxopiperidin-3-yl)-6-fluoro-1,3-dioxoisoindoline)piperidine-4-yl)amino)piperidin-1-yl)pyridazine-3-formamide] came in with an inhibition at 0.1 µM of 50 to 79%.
As for `N#Cc1ccc(OC2CCC(NC(=O)c3ccc(N4C[C@H]5CC(N6CCN(c7cc8c(cc7F)C(=O)N(C7CCC(=O)NC7=O)C8=O)CC6)C[C@H]5C4)nn3)CC2)cc1Cl` (stereo partly drawn) [Compound 292, N-((1s,4S)-4-(3-chloro-4-cyanophenoxy)cyclohexyl)-6-((3aR,5R,6aS)-5-(4-(2-(2,6-dioxopiperidin-3-yl)-6-fluoro-1,3-dioxoisoindolin-5-yl)piperazin-1-yl)hexahydrocyclopenta[c]pyrrole-2(1H)-yl)pyridazine-3-formamide], the “% degradation” value is on record as “D (<25%)”.
Turning to `N#Cc1ccc(O[C@H]2CC[C@H](NC(=O)c3cnc(N4C[C@H]5C[C@@H](N6CCN(c7cc8c(cc7F)C(=O)N(C7CCC(=O)NC7=O)C8=O)CC6)C[C@H]5C4)cn3)CC2)cc1Cl` (stereo partly drawn) [Compound 293, N-((1r,4r)-4-(3-chloro-4-cyanophenoxy)cyclohexyl)-5-((3aR,5R,6aS)-5-(4-(2-(2,6-dioxopiperidin-3-yl)-6-fluoro-1,3-dioxoisoindolin-5-yl)piperazin-1-yl)hexahydrocyclopenta[c]pyrrole-2(1H)-yl)pyrazine-2-carboxamide], the inhibition at 0.1 µM is 50 to 79%.
Take `N#Cc1ccc(OC2CCC(NC(=O)c3ncc(N4C[C@H]5CC(N6CCN(c7cc8c(cc7F)C(=O)N(C7CCC(=O)NC7=O)C8=O)CC6)C[C@H]5C4)cn3)CC2)cc1Cl` (stereo partly drawn) [Compound 294, N-((1r,4r)-4-(3-chloro-4-cyanophenoxy)cyclohexyl)-5-((3aR,5R,6aS)-5-(4-(2-(2,6-dioxopiperidin-3-yl)-6-fluoro-1,3-dioxoisoindolin-5-yl)piperazin-1-yl)hexahydrocyclopenta[c]pyrrole-2(1H)-yl)pyrimidine-2-carboxamide]: the “% degradation” value is reported as “C (49%-25%)”.
For the compound `N#Cc1ccc(O[C@H]2CC[C@@H](NC(=O)c3cnc(N4CCN([C@@H]5C[C@@H]6CN(c7cc8c(cc7F)C(=O)N(C7CCC(=O)NC7=O)C8=O)C[C@@H]6C5)CC4)cn3)CC2)cc1Cl` (stereo partly drawn) [Compound 295, N-((1s,4s)-4-(3-chloro-4-cyanophenoxy)cyclohexyl)-5-(4-((3aR,5R,6aS)-2-(2-(2,6-dioxopiperidin-3-yl)-6-fluoro-1,3-dioxoisoindolin-5-yl)octahydrocyclopenta[c]pyrrol-5-yl)piperazin-1-yl)pyrazine-2-carboxamide], the “% degradation” value was “C (49%-25%)”.
In turn, `N#Cc1ccc(O[C@H]2CC[C@H](NC(=O)c3cnc(N4CCN([C@@H]5C[C@@H]6CN(c7ccc8c(c7)C(=O)N(C7CCC(=O)NC7=O)C8=O)C[C@@H]6C5)CC4)cn3)CC2)cc1Cl` (stereo partly drawn) [Compound 296, N-((1r,4r)-4-(3-chloro-4-cyanophenoxy)cyclohexyl)-5-(4-((3aR,5R,6aS)-2-(2-(2,6-dioxopiperidin-3-yl)-1,3-dioxoisoindol-5-yl)octahydrocyclopenta [c]pyrrol-5-yl)piperazin-1-yl)pyrazine-2-carboxamide] returned an inhibition at 0.1 µM of less than 25%.
For the compound `N#Cc1ccc(O[C@H]2CC[C@H](NC(=O)c3ccc(N4CCN([C@@H]5C[C@@H]6CN(c7cc8c(cc7F)C(=O)N(C7CCC(=O)NC7=O)C8=O)C[C@@H]6C5)CC4)nn3)CC2)cc1Cl` (stereo partly drawn) [Compound 297, N-((1r,4r)-4-(3-chloro-4-cyanophenoxy)cyclohexyl)-6-(4-((3aR,5R,6aS)-2-(2-(2,6-dioxopiperidin-3-yl)-6-fluoro-1,3-dioxoisoindolin-5-yl)octahydrocyclopenta[c]pyrrol-5-yl)piperazin-1-yl)pyridazine-3-formamide], the inhibition at 0.1 µM was in the range of 25 to 49%.
As to `N#Cc1ccc(O[C@H]2CC[C@H](NC(=O)c3ccc(N4CCN([C@@H]5C[C@@H]6CN(c7ccc8c(c7)C(=O)N(C7CCC(=O)NC7=O)C8=O)C[C@@H]6C5)CC4)nn3)CC2)cc1Cl` (stereo partly drawn) [Compound 298, N-((1r,4r)-4-(3-chloro-4-cyanophenoxy)cyclohexyl)-6-(4-((3aR,5R,6aS)-2-(2-(2,6-dioxopiperidin-3-yl)-1,3-dioxoisoindolin-5-yl)octahydrocyclopenta[c]pyrrol-5-yl)piperazin-1-yl)pyridazine-3-formamide], the inhibition at 0.1 µM is less than 25%.

The term inhibition denotes how much of the control response was suppressed.
